The values below come from PubChem BioAssay (NCI).

Test systems include HOP-62 NSCLC; A549 NSCLC; UO-31 renal; NCI-H460 lung; EKVX NSCLC; TK-10 renal; RXF 393 renal; SNB-75 CNS; HL-60(TB) leukemia; NCI-H522 lung.
Assay in all cases: inhibition of tumour cell growth, NCI panel, 48 h

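A five-concentration, 48-hour dose response in 96-well plates underlies each endpoint, interpolated linearly between surrounding concentrations. GI50 = concentration required for 50% inhibition of growth. TGI marks complete inhibition of growth.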

For `C/C(=C1/N=C(c2cc([N+](=O)[O-])ccc2Cl)N(c2ccc(Br)cc2)C1=O)c1ccc(N(CCC#N)CCC#N)cc1C`, the TGI was more than 100 µM in the test on HOP-62 NSCLC; 62.6 µM in the test on A549 NSCLC; more than 100 µM in the test on UO-31 renal; more than 100 µM with NCI-H460 lung; more than 100 µM with EKVX NSCLC; more than 100 µM with TK-10 renal. Besides, the TGI in the test with RXF 393 renal was more than 100 µM; in the test with SNB-75 CNS it was more than 100 µM; with HL-60(TB) leukemia, 36.3 µM.

On to `OCC#CCOCC#Cc1ccccc1C#CCOCC#CCO`, for which the GI50 was 50.9 µM with A549 NSCLC; 66.5 µM in the test with NCI-H522 lung; more than 100 µM in the test with UO-31 renal; 48.6 µM in the test on NCI-H460 lung; 41.3 µM in the test with EKVX NSCLC; 24.4 µM with TK-10 renal. Moreover, the GI50 in the test with RXF 393 renal was 28.8 µM; with HL-60(TB) leukemia, 47.4 µM. The TGI in the test with A549 NSCLC is more than 100 µM; in the test on NCI-H522 lung, more than 100 µM; in the test with UO-31 renal, more than 100 µM; with NCI-H460 lung, more than 100 µM; in the test with EKVX NSCLC, more than 100 µM; in the test on TK-10 renal, 68.8 µM. Also, the TGI is 82.4 µM with RXF 393 renal and more than 100 µM in the test on HL-60(TB) leukemia.

In the case of `C=C1CCC2CC1C(C(=O)c1c[nH]c3ccccc13)=NC2(C)C` (stereo unspecified), the TGI in the test on HOP-62 NSCLC, in the test with A549 NSCLC, with NCI-H522 lung, in the test with UO-31 renal, in the test with NCI-H460 lung and with EKVX NSCLC was more than 100 µM throughout. For the same compound, the TGI in the test with SNB-75 CNS and in the test on HL-60(TB) leukemia was more than 100 µM throughout.

As to `COc1cccc(/C=N/[N-]C(=O)c2ccncc2)c1[O-].[Mn+2].[OH3+]`, the GI50 in the test with HOP-62 NSCLC is 5.86 µM; with A549 NSCLC, 5.69 µM; in the test with UO-31 renal it was 3.83 µM; in the test on NCI-H460 lung, 4.34 µM; in the test on EKVX NSCLC, 9.25 µM; in the test with TK-10 renal, 18.3 µM. Further, the values for the GI50 in the test with SNB-75 CNS and in the test with HL-60(TB) leukemia were 26.8 µM and 1.45 µM, respectively. The TGI in the test on HOP-62 NSCLC was more than 100 µM; with A549 NSCLC it was more than 100 µM; in the test on UO-31 renal, 26.5 µM; in the test with NCI-H460 lung it was more than 100 µM; in the test with EKVX NSCLC, more than 100 µM; in the test on TK-10 renal, more than 100 µM. Besides, the TGI in the test on SNB-75 CNS was more than 100 µM; in the test with HL-60(TB) leukemia, 4.19 µM.

As to `C[C@@H](O)[C@@H](C)Oc1nc(Nc2ccc(S(=N)(=O)C3CC3)cc2)ncc1C(F)(F)F` (stereo partly specified), the GI50 was 0.0283 µM in the test on HOP-62 NSCLC; 0.0298 µM in the test on A549 NSCLC; 0.0328 µM in the test on NCI-H522 lung; 0.0239 µM with UO-31 renal; 0.0303 µM in the test on NCI-H460 lung; 0.0377 µM with TK-10 renal. The GI50 in the test with SNB-75 CNS was 0.0162 µM; with HL-60(TB) leukemia it was 0.0183 µM. The TGI in the test on HOP-62 NSCLC was 16.4 µM; with A549 NSCLC, 15.6 µM; in the test on NCI-H522 lung, 0.81 µM; in the test with UO-31 renal it was 0.0895 µM; in the test with NCI-H460 lung it was 11.5 µM; in the test on TK-10 renal, more than 45.9 µM. Further, the TGI amounted to 0.0554 µM in the test on SNB-75 CNS and 0.0544 µM in the test on HL-60(TB) leukemia.

Consider `CC(=O)Nc1ccccc1-c1nc2ccccc2nc1-c1ccccc1`, for which the TGI in the test on HOP-62 NSCLC, in the test on A549 NSCLC, in the test with UO-31 renal, with NCI-H460 lung, in the test with EKVX NSCLC and in the test with RXF 393 renal was more than 100 µM throughout. For the same compound, the TGI in the test with SNB-75 CNS and in the test on HL-60(TB) leukemia was more than 100 µM in each case.

In the case of `CC(C)C[C@H](CC(=O)O)C(=O)N[C@@H](Cc1c[nH]c2ccccc12)C(=O)N[C@@H](C)c1ccccc1`, the GI50 in the test with HOP-62 NSCLC, in the test with A549 NSCLC, in the test with NCI-H522 lung, in the test on UO-31 renal, in the test on NCI-H460 lung and in the test on EKVX NSCLC was more than 25 µM each time. The GI50 with TK-10 renal, in the test with RXF 393 renal and with SNB-75 CNS was more than 25 µM in each case. The TGI in the test with HOP-62 NSCLC, with A549 NSCLC, in the test with NCI-H522 lung, with UO-31 renal, with NCI-H460 lung and in the test with EKVX NSCLC was more than 25 µM throughout. Moreover, the TGI in the test with TK-10 renal, in the test with RXF 393 renal and in the test on SNB-75 CNS was more than 25 µM throughout.

As to `CCn1cnc(C[C@H](NC(=O)[C@H](CCCCNC(=O)Nc2cc(C(F)(F)F)cc(C(F)(F)F)c2)NC(=O)Nc2cc(C(F)(F)F)cc(C(F)(F)F)c2)C(=O)OC)c1`, the GI50 is 9.32 µM in the test with HOP-62 NSCLC; 3.97 µM with A549 NSCLC; 5.19 µM in the test on NCI-H522 lung; more than 10 µM in the test with UO-31 renal; 3.43 µM with NCI-H460 lung; 7.46 µM with TK-10 renal. Also, the GI50 was 4.24 µM in the test with RXF 393 renal and 1.37 µM in the test on SNB-75 CNS. In addition, the TGI with HOP-62 NSCLC, in the test on A549 NSCLC, with NCI-H522 lung, in the test with UO-31 renal, in the test on NCI-H460 lung and in the test on TK-10 renal was more than 10 µM throughout. Also, the TGI in the test on RXF 393 renal and with SNB-75 CNS was more than 10 µM each time.

Consider `CC(=O)NNc1nc(C)c(C(=O)NNC(=O)C(=O)Nc2ccc(Cl)c([N+](=O)[O-])c2)s1`, for which the TGI in the test with HOP-62 NSCLC is more than 100 µM; in the test on A549 NSCLC, more than 100 µM; in the test on NCI-H522 lung it was 79.5 µM; in the test on UO-31 renal, more than 100 µM; in the test on NCI-H460 lung, more than 100 µM; in the test with EKVX NSCLC, more than 100 µM. Besides, the TGI with TK-10 renal and in the test on HL-60(TB) leukemia was more than 100 µM throughout.

As for `C/C(NNC(=O)c1ccccc1O)=C1\C=Nc2ccccc2S1`, the TGI in the test with HOP-62 NSCLC is more than 100 µM; in the test with A549 NSCLC, 28.2 µM; in the test on NCI-H522 lung, more than 100 µM; in the test on UO-31 renal it was 5.68 µM; with NCI-H460 lung, 24.7 µM; with EKVX NSCLC it was more than 100 µM. In addition, the TGI with TK-10 renal was more than 100 µM; in the test on SNB-75 CNS, 43.8 µM; with HL-60(TB) leukemia it was 41.9 µM.

As to `Cc1ccc2nc(NC(=O)C(=O)C(C(=O)c3ccc4ccccc4c3)C3OC(=O)c4ccccc43)sc2c1` (stereo unspecified), the TGI with HOP-62 NSCLC is 26.6 µM; in the test with A549 NSCLC, 53.8 µM; in the test with NCI-H522 lung, 26.3 µM; with UO-31 renal it was 28.6 µM; in the test on NCI-H460 lung, 18 µM; in the test with EKVX NSCLC, 44.5 µM. The compound further displayed a TGI in the test on RXF 393 renal of 8.79 µM.
